Experimental data published in patent US6641571B2, “Reduction of postoperative complications of cardiopulmonary bypass (CPB) surgery” (Ed. Geistlich Soehne AG fuer Chemische Industrie, priority 2000, dated 2003).

Experiments:
Type in all cases: in vivo, human
[1] = tested on: IL-6; assay: Randomized clinical trial in CPB patients: IL-6 level by ELISA
Experimental: (§1) A randomized prospective clinical trial was performed. Thirty-four consecutive patients with an ejection fraction >30%, undergoing elective coronary artery bypass grafting were randomized into four groups. Groups A and B received taurolidine (250 mL 2% taurolidine) intravenously at induction through a central line. These patients also received two further doses of taurolidine at 12 hour intervals (2×250 mL 2% taurolidine/day) for the first 24 hours following surgery, but in group A crystalloid cardioplegia was used for myocardial protection and in group B blood cardioplegia was used. Groups C and D received saline vehicle controls while group C had crystalloid cardioplegia and group D received blood cardioplegia. Blood samples were taken pre-operatively, at the time of aortic unclamping, 2 hours, 6 hours and 24 hours post aortic unclamping. Neutrophil and monocyte respiratory burst, phagocytosis ability, CD11b and CD14 expression were assessed using flow cytometry. Plasma interleukins 6, 8 and 10 (IL-6, IL-8 and IL-10) and tumor necrosis factor α (TNF-α) were determined by Enzyme Linked Immuno Sorbent Assay. All the patients received the standard antibiotic prophylaxis for cardiac bypass surgery.
(§2) Patient selection was performed as follows. Patients undergoing elective coronary artery bypass grafting with an ejection fraction greater than or equal to 30%, no history of Diabetes mellitis and a normal chest x-ray were selected. Patients on ACE-inhibitors were not included in the study. The decision was made jointly by the consultant anesthetist and surgeon involved before inclusion in the study, and each patient was then randomized to drug or control. All the patients were nursed in the cardiac intensive care unit post operatively. Informed consent was sought from each patient before inclusion into the study.
(§3) Parameters 2-4 were assessed post aortic unclamping, 2 hours and 24 hours post-operatively.
(§4) Thirty-four patients were studied as described above.

[2] = tested on: IL-10; assay: Randomized clinical trial in CPB patients: IL-10 level by ELISA
Experimental: as §1, §2, §3, §4

[3] = tested on: TNF-α; assay: Randomized clinical trial in CPB patients: circulating TNF-α by ELISA; conditions: perioperative taurolidine
Experimental: as §1
(§5) Patient selection was performed as follows. […]
as §3

[4] = tested on: IL-8; assay: Randomized clinical trial in CPB patients: circulating IL-8 by ELISA; conditions: perioperative taurolidine
Experimental: as §1, §5, §3

[5] = tested on: neutrophil and monocyte activity (respiratory burst, phagocytosis, CD11b, CD14); assay: Randomized clinical trial in CPB patients: neutrophil and monocyte activity by flow cytometry; conditions: perioperative taurolidine
Experimental: as §1, §5, §3

[6] = tested on: arrhythmia in CPB patients; assay: Arrhythmia in CPB patients during crystalloid cardioplegia; conditions: of ten patients; crystalloid cardioplegia with taurolidine 2% solution (placebo: 8 of ten)
Source text: Ten patients underwent CPB using crystalloid cardioplegia with taurolidine 2% solution for myocardial protection. Another ten patients underwent CPB using crystalloid cardioplegia and a placebo for myocardial protection. Three of the patients treated with taurolidine experienced arrhythmia whereas 8 of the patients treated with placebo experienced arrhythmia.

[7] = 24 hours post aortic unclamping, crystalloid cardioplegia (Group A, n = 8), 250 mL 2% taurolidine i.v., mean ± s.d., *p < 0.05 vs. placebo
[8] = Group A vs. Group B, p<0.05 at 24 hours post aortic unclamping
[9] = crystalloid cardioplegia, Group A vs. Group C, 24 hour timepoint

SMILES: O=S1(=O)CCN(CN2CCS(=O)(=O)NC2)CN1 [Taurolidine, bis(1,1-dioxoperhydro-1,2,4-thiadiazin-4-yl)methane]
- Serum IL-6 level [1, 7]: 8.0 ± 1.4* pg/mL
- Interleukin-6, crystalloid vs. blood cardioplegia in taurolidine patients [1, 8]: significantly down-regulated
- Effect on interleukin-6 in combination with blood cardioplegia ([1]; blood cardioplegia, Group B vs. Group D): No beneficial effect
- Interleukin-6 vs. placebo (in words) [1, 9]: significantly down-regulated
- Serum IL-10 level [2, 7]: 28.2 ± 9.6* pg/mL
- Interleukin-10, crystalloid vs. blood cardioplegia in taurolidine patients [2, 8]: significantly up-regulated
- Interleukin-10 vs. placebo (in words) [2, 9]: significantly up-regulated
- Effect on circulating TNF-α [3]: did not appear to modify
- Effect on circulating IL-8 [4]: did not appear to modify
- Effect on neutrophil or monocyte activity [5]: did not appear to modify
- Number of patients who experienced arrhythmia [6]: Three
